The source of these data is article PMC10057528, “Trypanosoma cruzi Sirtuin 2 as a Relevant Druggable Target: New Inhibitors Developed by Computer-Aided Drug Design” (Pharmaceuticals, 2023).

Read-outs that look alike come from different tables or passages of the source.

In one series the test system is Chagas disease. Details: method as in PMID 29357372. As to conditions: cited from earlier work.
The test system of series [1] is T. cruzi Sir2-related protein 1 (TcSir2rp1). More on the design: method as in PMID 29357372, PMID 19937668. To be noted: cited from earlier work.
The next series addresses T1, TcSir2 (Trypanosoma cruzi, UniProt Q4DP02).
T1 sequence (Q4DP02 1-359): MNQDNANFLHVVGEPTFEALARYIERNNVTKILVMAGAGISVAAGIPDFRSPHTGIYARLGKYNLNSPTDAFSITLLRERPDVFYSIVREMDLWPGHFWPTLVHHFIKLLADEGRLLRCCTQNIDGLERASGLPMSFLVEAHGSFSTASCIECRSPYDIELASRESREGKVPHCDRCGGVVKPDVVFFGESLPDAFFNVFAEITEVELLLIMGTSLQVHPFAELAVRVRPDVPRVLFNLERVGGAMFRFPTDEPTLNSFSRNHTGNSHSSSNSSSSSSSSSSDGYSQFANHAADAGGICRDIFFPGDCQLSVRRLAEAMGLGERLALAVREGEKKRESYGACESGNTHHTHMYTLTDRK
Briefly: Recombinant TcSir2 activity assay (fluorescent peptide deacetylation). As to conditions: for IC50: recombinant TcSir2 0.1 μM, 10 μM peptide, 25 μM NAD+, 37 °C, ND = values measured but did not converge IC50 significantly. Type of series: biochemical. The source says: The peptide substrate (Abz-Gly-Pro-AcetylLys-Ser-Gln-EDDnp, where Abz stands for ortho-aminobenzoic), based on the TcSir2 specificity, was acquired from AminoTech (São Paulo, Brazil). This substrate contains an acetyl-Lys, which is available for trypsin cleavage only when the TcSir2 deacetylates the lysine side chain. After peptide deacetylation and cleavage, the fluorescent moiety (Abz) and the EDDnp suppressor group (N-[2,4-dinitrophenyl] ethylenediamine) are separated, and fluorescence (420 nm) can occur upon excitation at 320 nm. The TcSir2 activity assays were performed at 37 °C in a 25 mM Tris-HCl buffer with pH 8 and containing 137 mM NaCl, 2.7 mM KCl, and 1 mM MgCl2. The assays used 0.1 μM purified TcSir2 enzyme, 10 μM Abz-Gly-Pro-AcetylLys-Ser-Gln-EDDnp peptide, and 25 μM NAD^+ cofactor. After a 15 min incubation, 12 mM nicotinamide and 0.6 mg/mL trypsin (Sigma Aldrich, Sao Paulo, Brazil, N3376) were added to stop the reaction and cleave the deacetylated peptide (30 min at 37 °C). A control was also prepared without trypsin to detect the baseline fluorescence of the uncleaved peptide. Increasing concentrations of the putative inhibitory compound prepared in DMSO were also tested under the same conditions, with controls to detect the potential effect of DMSO at a maximum concentration of 5% (v/v) on TcSir2. Fluorescence was measured using a TECAN-InfinityPro2000 plate reader.
The percentage of inhibition data was calculated using the equation: Inhibition (%) = (1 − vi/vc) × 100, where vi represents the initial rate in the presence of the putative TcSir2 inhibitor, and vc is the initial rate of the control assay containing only DMSO. IC50 values were calculated based on the percentage of inhibition and concentration of the inhibitor using non-linear regression with least squares on GraphPad Prism (v8.1, GraphPad software, La Jolla, CA, USA). […] Km and Vmax in the presence and absence of the inhibitor were obtained by fitting the initial rate and [NAD^+] into the Michaelis-Menten equation on GraphPad Prism (GraphPad Prism version v8.1, for Windows, GraphPad Software, San Diego, California USA, www.graphpad.com).
Supplementary methods – Enzyme kinetic characterisation
The enzyme kinetic assay for TcSir2, based on a previous publication1 was divided into three steps. In the first one, the recombinant TcSir2, NAD+ and the peptide substrate (Abz-Gly-Pro-AcetylLys-Ser-Gln-EDDnp) were incubated for 15 min at 37° C.
In the second step, in order to stop the reaction, 12 mM nicotinamide was added to the reaction medium. Finally in the third step trypsin was added and the reaction medium incubated for 30 min at 37° C, as previously described1. Trypsin cleaves this substrate in the linkage between lysine and serine only when the acetyl moiety had been previously […]
when lysine was acetylated2. […]
r2 = 0.99, Fig. S5a) and the peptide substrate (2.1 µM, r2 = 0.97, Fig. S5b) were determined using seven different substrate concentrations, whereas one of them was kept constant.

Another series relates to T. cruzi amastigote. Briefly: In vitro trypanocidal activity with amastigote forms (Tulahuen LacZ, CPRG). Type of series: cell-based, Trypanosoma cruzi. To be noted: intracellular amastigotes in LLCMK2 cells, ND* = values measured but did not converge IC50 significantly, read-out: IC50 T. cruzi ama. The method, then: In 96-well plates, cells from the LLCMK2 lineage were seeded at a concentration of 5 × 10^4 cells/mL (80 μL). The trypomastigote forms of the Tulahuen LacZ strain were added at a concentration of 5 × 10^5 cells/mL (in a total of 20 μL) and, subsequently incubated for 24 h at 37 °C with a 5% CO2 atmosphere. Next, the trypomastigote forms present in the supernatant were washed, leaving only the amastigote forms. Serial dilutions of the compounds were added (1.95 to 200 µM) and the plate was incubated for 72 h at 37 °C with a 5% CO2 atmosphere. At the end of this period, the CPRG substrate (chlorophenol red β-D-galactopyranoside, 400 μM in 0.3% Triton X-100, pH 7.4) was added and incubated for additional 6 h. After incubation, the sample’s absorbance values were measured using a spectrophotometer at 570 nm.

The nature of series [2]: Mammalian cell viability assay (MTT). Type of series: cell-based. To be noted: rhesus monkey; LLCMK2 cells, MTT, 72 h; ND* = values measured but did not converge IC50 significantly; read-out: EC50 Cell Toxicity. The method, then: (§1) LLCMK2 cells were maintained in RPMI-1640 medium supplemented with 10% fetal bovine serum (FBS) (Gibco, Carlsbad, CA, USA), penicillin/streptomycin (100 μg.mL^−1 and 0.1 mg.mL^−1, respectively, Sigma-Aldrich, St. Louis, Mo, USA) and 2 mM L-glutamine, and treated every second day. […] All cells were maintained in humidified CO2 at 37 °C. Cells were obtained at the third passage, propagated, and used in experiments between the fourth and fifth passages. Cells were routinely checked for contamination with mycoplasma by PCR. […] The principle of this method, as described by Mosmann et al., consists in measuring the cellular viability of the enzymatic activity of […] of living cells. […] At the end of the period incubation. 50 μL MTT (Sigma-Aldrich Corp. St. Louis, MO, USA) at the concentration of 2 mg.mL^−1. After 4 h incubation, 50 μL DMSO per well was added to dissolve formazan blue crystals. The absorbance was determined at 570 nm using Biotek Synergy HT microplate spectrophotometer. The percentage of cell viability was determined from the following formula (40): Cell Viability (%) = (Treatment Absorbance)/(Control Absorbance negative) × 100.

For a further series, the system named is LLCMK2 cells. Briefly: Mammalian cell viability assay (MTT). To be noted: Macaca mulatta, LLC-MK2, Figure 4g; read-out: IC50 mammalian cell-lines. Type of series: cell-based. The method, then:
as §1

Substrate in series [3]: NC(=O)c1ccc[n+](C2OC(COP(=O)([O-])OP(=O)(O)OCC3OC(n4cnc5c(N)ncnc54)C(O)C3O)C(O)C2O)c1
As to the kind of experiment: Recombinant TcSir2 activity assay (fluorescent peptide deacetylation). It is filed as biochemical, Trypanosoma cruzi. To be noted: other: TcSir2, r2 = 0.99; pH 8.0; 37.0 °C. The source says: The peptide substrate (Abz-Gly-Pro-AcetylLys-Ser-Gln-EDDnp, where Abz stands for ortho-aminobenzoic), based on the TcSir2 specificity, was acquired from AminoTech (São Paulo, Brazil). This substrate contains an acetyl-Lys, which is available for trypsin cleavage only when the TcSir2 deacetylates the lysine side chain. After peptide deacetylation and cleavage, the fluorescent moiety (Abz) and the EDDnp suppressor group (N-[2,4-dinitrophenyl] ethylenediamine) are separated, and fluorescence (420 nm) can occur upon excitation at 320 nm. The TcSir2 activity assays were performed at 37 °C in a 25 mM Tris-HCl buffer with pH 8 and containing 137 mM NaCl, 2.7 mM KCl, and 1 mM MgCl2. […] A control was also prepared without trypsin to detect the baseline fluorescence of the uncleaved peptide. […] Fluorescence was measured using a TECAN-InfinityPro2000 plate reader.
The percentage of inhibition data was calculated using the equation: Inhibition (%) = (1 − vi/vc) × 100, where vi represents the initial rate in the presence of the putative TcSir2 inhibitor, and vc is the initial rate of the control assay containing only DMSO. IC50 values were calculated based on the percentage of inhibition and concentration of the inhibitor using non-linear regression with least squares on GraphPad Prism (v8.1, GraphPad software, La Jolla, CA, USA). […]

Where [4] appears, read: Trypanosoma cruzi, LLC-MK2, 72 h.

Turning to `O=C1c2cccc3cccc(c23)C(=O)N1CCCNCCCCNCCCNCCCN1C(=O)c2cccc3cccc(c23)C1=O` [BNIP-spermidine, bisnaphthalimidopropyl-spermidine], in the series with Chagas disease, the “performance in the mouse model of Chagas disease” value is reported as “performed poorly”. Besides, the “inhibition of NAD+-dependent deacetylase activity” value in series [1] is reported as “inhibition”.

What is called IC50 is the concentration needed to halve the response being measured. By EC50 is commonly meant the concentration needed to bring the measured effect to its halfway point. As to `O=C(Cn1ccnc1[N+](=O)[O-])NCc1ccccc1` [BZN, benznidazole, reference compound], the results for the IC50 on TcSir2 (read-out: IC50 (TcSir2)) and in the series on T. cruzi amastigote (setting [4]) were 9.33 ± 0.01 µM and 4.55 ± 0.03 µM, respectively. Moreover, the EC50 at 72 h in series [2] stood at 204.1 ± 0.81 µM.

The term Ki denotes a dissociation constant, usually derived from enzyme kinetics or from competition with a known ligand. As for `O=C(NCc1coc(-c2ccccc2)n1)Nc1ccc(-c2noc(C(F)(F)F)n2)cc1` [CDMS-01], the Ki on TcSir2 was 21.5 µM. Further, the Vmax at TcSir2 (3 µM CDMS-01), on TcSir2 (5 µM CDMS-01), on TcSir2 (10 µM CDMS-01), on TcSir2 (17 µM CDMS-01), on TcSir2 (20 µM CDMS-01) and at TcSir2 (30 µM CDMS-01) was 0.29 µM in each case. Besides, at TcSir2 (40 µM CDMS-01), the Vmax is reported as 0.29 µM. Besides, the IC50 was found to be 40 µM on TcSir2 (IC50 (TcSir2)), 76.7 µM in the series on T. cruzi amastigote (setting [4]), 76.68 ± 0.02 µM in the series on T. cruzi amastigote (72 h) and 136 µM in the series with LLCMK2 cells. For the same molecule, the inhibition mechanism result on TcSir2 (effect on apparent Km and Vmax for NAD+) is “competitive”. Also, the EC50 at 72 h in series [2] stood at 135.9 ± 0.5 µM.

Consider `NC(=O)c1cccnc1` [Nicotinamide, reference compound], for which the IC50 at TcSir2 (IC50 (TcSir2)) was found to be 987.4 ± 0.64 µM. For the same molecule, the “inhibition of NAD+-dependent deacetylase activity” value in series [1] is “inhibition”.

As a reminder, the Km is the substrate concentration at which the rate is half of its maximum. With Abz-Gly-Pro-AcetylLys-Ser-Gln-EDDnp, the Km at TcSir2 (TcSir2, r2 = 0.97, read-out: Km for the peptide substrate) amounted to 2.1 µM.

B1: TcSir2 (Trypanosoma cruzi strain CL Brener) (protein)
chain: T1 sequence (Q4DP02 1-359)
B1: the Michaelis-Menten constant (Km) in series [3] is given as 25 µM.
